This is an account of results in patent US6184238A, “N-hydroxyurea derivative and pharmaceutical composition containing the same” (Nikken Chemicals Co., Ltd., priority 1996, dated 2001).

In series [1] the target is T1, Thromboxane synthase (Homo sapiens, UniProt P24557).
T1 construct: Human platelet microsomes were used; from tissue; host or cells: human platelet microsomes
T1 sequence (P24557 1-533): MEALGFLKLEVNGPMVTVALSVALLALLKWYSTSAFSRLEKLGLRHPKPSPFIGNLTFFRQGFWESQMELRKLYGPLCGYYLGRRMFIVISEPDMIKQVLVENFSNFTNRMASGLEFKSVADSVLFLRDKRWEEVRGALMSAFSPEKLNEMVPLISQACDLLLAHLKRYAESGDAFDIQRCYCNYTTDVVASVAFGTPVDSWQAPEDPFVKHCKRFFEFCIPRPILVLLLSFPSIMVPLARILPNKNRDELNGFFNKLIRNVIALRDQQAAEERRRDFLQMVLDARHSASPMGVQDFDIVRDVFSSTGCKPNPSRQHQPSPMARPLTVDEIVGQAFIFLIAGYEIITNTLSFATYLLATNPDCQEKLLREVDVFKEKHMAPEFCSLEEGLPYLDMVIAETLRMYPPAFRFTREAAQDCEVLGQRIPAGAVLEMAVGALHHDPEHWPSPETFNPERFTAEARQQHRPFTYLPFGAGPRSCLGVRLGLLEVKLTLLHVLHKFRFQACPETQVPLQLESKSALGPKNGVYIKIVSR
Description: Thromboxane synthase inhibitory activity (thromboxane B2 production, human platelet microsomes). The series is classed as biochemical. Conditions: prostaglandin H2 added, pH 7.5, read-out: TxSI IC50 (inhibition of thromboxane B2 production). The protocol:
(Test of Thromboxane synthase Inhibitory Activity)
Human platelet microsomes were used and a test performed using as an indicator the amount of production of the thromboxane A2 stable metabolite thromboxane B2. A buffer solution (20 mM tris-HCl buffer solution, 1 mM EDTA, pH 7.5) containing human platelet microsomes (50 μg protein/ ml) and the test compound (final concentration of 10^-6 M) was stirred, then incubated at 0° C. for 30 minutes, followed by adding prostaglandin H2 (100 ng/2 μl). This was made acidic to stop the reaction, then neutralized with 1M Tris-base, then centrifuged at 3000 rpm for 20 minutes. The amount of the thromboxane B2 in the supernatant was measured by the EIA method (Cayman Co. kit).
As the test compound, the compounds 1, 6, 10, 11, 18 to 21, 24 to 27, 35, 40, 41, 44, and 45 were used for the test.

Series [2] addresses T2, Lipoxygenase (Rattus norvegicus, UniProt P12527).
T2 construct: Using rat polymorphonuclear leukocytes; endogenous in cells; host or cells: casein-elicited peritoneal polymorphonuclear leukocytes of male Wistar rats
T2 sequence (P12527 1-673): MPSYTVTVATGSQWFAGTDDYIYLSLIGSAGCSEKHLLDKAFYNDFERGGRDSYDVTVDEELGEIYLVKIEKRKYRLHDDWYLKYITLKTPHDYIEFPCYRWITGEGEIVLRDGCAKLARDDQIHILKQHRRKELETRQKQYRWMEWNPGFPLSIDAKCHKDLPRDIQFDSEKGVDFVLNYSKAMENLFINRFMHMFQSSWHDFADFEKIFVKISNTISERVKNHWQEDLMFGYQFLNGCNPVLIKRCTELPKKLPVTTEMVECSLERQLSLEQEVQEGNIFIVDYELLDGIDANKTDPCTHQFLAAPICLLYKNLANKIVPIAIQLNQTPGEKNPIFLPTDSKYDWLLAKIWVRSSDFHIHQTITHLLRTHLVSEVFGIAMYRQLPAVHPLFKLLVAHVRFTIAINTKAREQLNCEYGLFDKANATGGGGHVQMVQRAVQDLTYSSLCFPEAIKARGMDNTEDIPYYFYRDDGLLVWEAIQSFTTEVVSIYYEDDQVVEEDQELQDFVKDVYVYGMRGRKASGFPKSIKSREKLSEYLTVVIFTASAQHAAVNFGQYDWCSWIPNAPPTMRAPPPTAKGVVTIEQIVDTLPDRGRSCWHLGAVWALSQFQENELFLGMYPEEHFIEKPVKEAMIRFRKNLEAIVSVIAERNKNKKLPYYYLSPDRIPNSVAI
Description: Lipoxygenase inhibitory activity (leukotriene B4 production, rat polymorphonuclear leukocytes). The series is classed as cell-based. The protocol: (Test of Lipoxygenase Inhibitory Activity)
Using rat polymorphonuclear leukocytes, a test was conducted using as an indicator the amount of production of leukotriene B4. Wistar male rats (Japan Clea) were intraperitoneally administered with 12% sodium casein. After 16 hours, the peritoneal cavities were lavaged and the polymorphonuclear leukocytes were recovered. The polymorphonuclear leukocytes thus obtained were suspended in a phosphate buffer (137 mM NaCl, 3 mM KCl, 8 mM Na2 HPO4, 2 mM KH2 PO4) (2.5×10^5 cells/0.4 ml), then the test compound (final concentration 10^-5 M) was added and incubation performed for 10 minutes at 37° C. then a calcium solution (10 mM CaCl2, 0.86% NaCl) 0.1 ml was added and incubation performed for 5 minutes, then 1.25 μl of calcium ionophore (20 μm, A-23187) was added and the reaction started. Five minutes after the addition, 250 μl of methanol was added to stop the reaction. After the reaction was stopped, the result was centrifuged for 20 minutes (4° C., 3000 rpm), then the amount of leukotriene B4 in the supernatant was measured by the EIA method (Cayman Co. kit).
As the test compound, the same compounds as in Test Example 1 were used for the test.

Series [3] has as its system Crj-ICR male mice. Description: Acute toxicity test. The format is in vivo, mouse. As to conditions: intraperitoneal, dosages of up to 1000 mg/kg, 7 days observation. The protocol:
Crj-ICR male mice (7 weeks old, five mice to a group) were used. The test compound (Compounds 9, 26, and 33) was suspended in 0.5% sodium carboxymethylcellulose and administered intraperitoneally at a ratio of 10 ml/kg. The survival of the animals was observed up until 7 days after administration.

Series [4] has as its system Antigen-Induced Bronchoconstriction Model of Guinea Pig. Description: Antigen-induced bronchoconstriction model of guinea pig (Konzett-Rossler method). The series is classed as in vivo. Conditions: Cavia porcellus, 1 h; guinea pigs sensitized by ovalbumin; oral; one hour after administration; read-out: Suppression of respiratory constriction (ED50). The protocol: (Pharmacological Activity on Antigen-Induced Bronchoconstriction Model of Guinea Pig)
Guinea pigs sensitized by ovalbumin were used and orally administered with the test compound suspended in 5% gum arabic. The activity for inhibiting antigen-induced bronchoconstriction after one hour after administration was measured by the Konzett-Rossler method.
Each of the sensitized guinea pigs was anesthesized by 35 mg/kg pentobarbital, a cannula was inserted into the respiratory tract and connected to an artificial respirator, a cannula was inserted into the jugular vein, and treatment was performed by 5 mg/kg suxamethonium and […] mepyramine. Next, the guinea pig was inhaled a nebulized ovalbumin to cause bronchoconstriction and the activity in inhibiting bronchoconstriction was found from the ratio of the amount of overflow volume to the detector to the amount of air blown volume from the artificial respirator.
As the test compound, the Compounds 19, 26, and 33 were used. As the control, the thromboxane synthase inhibitor OKY-046 and the 5-lipoxygenaseinhibitor A-64077 were used.

The mark [5] stands for this setting: rat polymorphonuclear leukocytes, calcium ionophore A-23187, 37° C., read-out: LTBI IC50 (inhibition of leukotriene B4 production).

Read-outs that look alike come from different tables or passages of the source.

By IC50 is commonly meant the concentration that gives 50% inhibition. Turning to `NC(=O)N(O)CCCCCCCCCCCCn1c(-c2cccnc2)cc2ccccc21` [Compound 1, N-Hydroxy-N-[12-[1-[2-(3-pyridyl)indolyl]]dodecyl]urea], the IC50 was 0.003 µM in series [1] and 0.006 µM in series [2] (setting [5]).

`NC(=O)N(O)CCCCCCCCn1c(-c2cccnc2)cc2ccccc21` [Compound 6, N-Hydroxy-N-[8-[1-[2-(3-pyridyl)indolyl]]octyl]urea]: the IC50 in series [1] worked out at 0.0007 µM; in series [2] (setting [5]), 0.01 µM.

Regarding `NC(=O)N(O)CCCCCCn1c(-c2cccnc2)c(Cl)c2cc(Cl)ccc21` [Compound 9, N-[6-[1-[3,5-dichloro-2-(3-pyridyl)indolyl]]hexyl]-N-hydroxyurea], in series [3], the “Deaths (acute toxicity)” value is “no deaths”.

Take `Cc1c(-c2cccnc2)n(CCCCCCN(O)C(N)=O)c2ccc(Cl)cc12` [Compound 10, N-[6-[1-[5-Chloro-3-methyl-2-(3-pyridyl)indolyl]]hexyl]-N-hydroxyurea]: the concentration for half-maximal inhibition (IC50) is 0.0007 µM in series [1] and 0.03 µM in series [2] (setting [5]).

As for `NC(=O)N(O)CCCCCCCCCCn1c(-c2cccnc2)cc2ccccc21` [Compound 11, N-hydroxy-N-[10-[1-[2-(3-pyridyl)indolyl]]decyl]urea], the concentration for half-maximal inhibition (IC50) in series [1] is 0.0008 µM; in series [2] (setting [5]), 0.009 µM.

As for `NC(=O)N(O)CCCCCCn1cc(Cc2cccnc2)c2ccccc21` [Compound 18, N-Hydroxy-N-[6-[1-[3-(3-pyridylmethyl)indolyl]]hexyl]urea], the IC50 in series [1] was determined as 0.3 µM; in series [2] (setting [5]) it was 0.1 µM.

Broadly, the ED50 is the midpoint of the dose-response relation. For `NC(=O)N(O)CCn1cc(-c2cccnc2)c2ccccc21` [Compound 19, N-Hydroxy-N-[2-[1-[3-(3-pyridyl)indolyl]]ethyl]urea], the ED50 in series [4] is 30 mg/kg. For the same compound, the IC50 in series [1] came to 0.015 µM; in series [2] (setting [5]) it was 0.3 µM.

Regarding `Cc1c(-c2cccnc2)c2ccccc2n1CCN(O)C(N)=O` [Compound 20, N-Hydroxy-N-[2-[1-[2-methyl-3-(3-pyridyl)indolyl]]ethyl]urea], the IC50 in series [1] was determined as 0.005 µM; in series [2] (setting [5]) it was 1.5 µM.

For `NC(=O)N(O)CCCCCCn1cc(-c2cccnc2)c2ccccc21` [Compound 21, N-Hydroxy-N-[6-[1-[3-(3-pyridyl)indolyl]]hexyl]urea], the figures for the IC50 in series [1] and in series [2] (setting [5]) were 0.015 µM and 0.04 µM, respectively.

Consider `Cn1c(-c2cccnc2)c(C=CCN(O)C(N)=O)c2ccccc21` [Compound 24, N-Hydroxy-N-[3-[3-[1-methyl-2-(3-pyridyl)indolyl]]-2-propenyl]urea], for which the IC50 was 0.04 µM in series [1] and 4 µM in series [2] (setting [5]).

Turning to `NC(=O)N(O)CC=Cc1cn(Cc2cccnc2)c2ccccc12` [Compound 25, N-hydroxy-N-[3-[3-[1-(3-pyridylmethyl)indolyl]]-2-propenyl]urea], the IC50 in series [1] was determined as 0.15 µM; in series [2] (setting [5]), 0.2 µM.

Turning to `NC(=O)N(O)Cc1cn(Cc2cccnc2)c2ccccc12` [Compound 26, N-Hydroxy-N-[3-[1-(3-pyridylmethyl)indolyl]methyl]urea], the ED50 in series [4] was determined as 75 mg/kg. The concentration for half-maximal inhibition (IC50) in series [1] was 0.7 µM; in series [2], 3 µM.

With `NC(=O)N(O)Cc1ccc(Cc2cn(Cc3cccnc3)c3ccccc23)cc1` [Compound 27, N-Hydroxy-N-[4-[3-[1-(3-pyridylmethyl)indolyl]]methylbenzyl]urea], the IC50 in series [1] is 0.07 µM; in series [2] (setting [5]), 0.1 µM.

For the compound `NC(=O)N(O)Cc1ccc2c(ccn2Cc2cccnc2)c1` [Compound 33, N-hydroxy-N-[5-[1-(3-pyridylmethyl)indolyl]methyl]urea], in series [4], the ED50 was 30 mg/kg.

Take `Cc1c(-c2cccnc2)n(C)c2ccc(CN(O)C(N)=O)cc12` [Compound 35, N-[5-[1,3-Dimethyl-2-(3-pyridyl)indolyl]methyl]-N-hydroxyurea]: the IC50 in series [1] was determined as 0.04 µM; in series [2] (setting [5]) it was 2 µM.

Regarding `Cn1cc(-c2cccnc2)c2cc(CN(O)C(N)=O)ccc21` [Compound 40, N-Hydroxy-N-[5-[1-methyl-3-(3-pyridyl)indolyl]methyl]urea], the figures for the IC50 in series [1] and in series [2] (setting [5]) were 0.03 µM and 0.7 µM, respectively.

As to `Cc1c(-c2cccnc2)n(C)c2ccc(C(C)N(O)C(N)=O)cc12` (stereo not shown) [Compound 41, N-[1-[5-[1,3-Dimethyl-2-(3-pyridyl)indolyl]]ethyl]-N-hydroxyurea], the figures for the IC50 in series [1] and in series [2] (setting [5]) were 0.07 µM and 2 µM, respectively.

For `Cc1c(-c2cccnc2)n(C)c2ccc(C#CC(C)N(O)C(N)=O)cc12` (stereo not shown) [Compound 44, N-[2-[4-[5-[1,3-dimethyl-2-(3-pyridyl)indolyl]]-3-butynyl]]-N-hydroxyurea], the IC50 is 0.03 µM in series [1] and 0.6 µM in series [2] (setting [5]).

As to `CC(c1ccc2c(c1)c(-c1cccnc1)cn2C)N(O)C(N)=O` (stereo not shown) [Compound 45, N-Hydroxy-N-[1-[5-[1-methyl-3-(3-pyridyl)indolyl]]ethyl]urea], the results for the IC50 in series [1] and in series [2] (setting [5]) were 0.06 µM and 2.5 µM, respectively.

On to `CC(c1cc2ccccc2s1)N(O)C(N)=O` (stereo not shown) [Compound A-64077, reference compound], for which the ED50 in series [4] stood at 300 mg/kg.

On to `O=C(O)/C=C/c1ccc(Cn2ccnc2)cc1` [OKY-046, reference compound], for which, in series [4], the ED50 came to 260 mg/kg.
